The record followed here is BindingDB's records for doi:10.1021/jm00011a020 (H. Lundbeck, 1995).

The assay concerns the target Sigma-2 receptor (TMEM97) (Rattus norvegicus). In words: Binding affinity towards Sigma receptor site 2 in rat brain using [3H]DTG as radioligand.
For orientation: IC50 means the concentration that inhibits the measured activity by half. Low readings indicate inhibition by little substance, high ones a need for much substance. The compound `Fc1ccc(-n2cc(CCCCN3CCC4(CC3)COCc3ccccc34)c3ccccc32)cc1` [1'-{4-[1-(4-fluorophenyl)-1H-3-indolyl]butyl}spiro[3,4-dihydro-1H-isochromene-4,4'-(hexahydropyridine)]] showed an IC50 of 0.34 nM.
The compound `Fc1ccc(-n2cc(CCCCN3CCC4(CC3)OCc3c(C(F)(F)F)cccc34)c3ccccc32)cc1` [1'-{4-[1-(4-fluorophenyl)-1H-3-indolyl]butyl}-4-trifluoromethylspiro[1,3-dihydroisobenzofuran-1,4'-(hexahydropyridine)]] returned an IC50 of 2.6 nM.
As to `Fc1ccc(-n2cc(CCCCN3CCC4(CC3)Cc3ccccc3CO4)c3ccccc32)cc1` [1'-{4-[1-(4-fluorophenyl)-1H-3-indolyl]butyl}spiro[3,4-dihydro-1H-isochromene-3,4'-(hexahydropyridine)]], the IC50 stood at 1.1 nM.
For the compound `Fc1ccc(-n2cc(CCCCN3CCC4(CC3)Cc3ccccc3O4)c3ccccc32)cc1` [1'-{4-[1-(4-fluorophenyl)-1H-3-indolyl]butyl}spiro[2,3-dihydrobenzo[b]furan-2,4'-(hexahydropyridine)]], the 50% inhibitory concentration (IC50) stood at 340 nM.
Under `c1ccc2c(c1)COC21CCN(CCCCC2CCCCC2)CC1` [1'-(cyclohexylbutyl)-3H-spiro[2-benzofuran-1,4'-piperidine]] stands 0.07 nM.
In turn, `Fc1ccc(-n2cc(CCCCN3CCC4(CC3)OCc3cccc(F)c34)c3ccccc32)cc1` [1-[1-(4-fluorophenyl)-1H-3-indolyl]-4-[7-fluorospiro[1,3-dihydroisobenzofuran-1,4'-(hexahydropyridine)]-1-yl]butane] returned an IC50 of 0.58 nM.
Under `c1ccc2c(c1)COC21CCN(CCCOC2CCCCC2)CC1` [1'-(3-cyclohexyloxypropyl)-3H-spiro[2-benzofuran-1,4'-piperidine]] stands 0.07 nM; under `Fc1ccc(-n2cc(CCCCN3CCC4(CC3)OCc3c(F)cccc34)c3ccccc32)cc1` [1-[1-(4-fluorophenyl)-1H-3-indolyl]-4-[4-fluorospiro[1,3-dihydroisobenzofuran-1,4'-(hexahydropyridine)]-1-yl]butane], 1.8 nM; under `Fc1ccc(-n2cc(CCCCN3CCC4(CC3)COc3ccccc3C4)c3ccccc32)cc1` [1'-{4-[1-(4-fluorophenyl)-1H-3-indolyl]butyl}spiro[3,4-dihydro-2H-chromene-3,4'-(hexahydropyridine)]], 250 nM.
For `Fc1ccc(-n2cc(CCCCN3CCC4(CCOc5ccccc54)CC3)c3ccccc32)cc1` [1'-{4-[1-(4-fluorophenyl)-1H-3-indolyl]butyl}spiro[3,4-dihydro-2H-chromene-4,4'-(hexahydropyridine)]] the value was 3 nM.
For `Fc1ccc(-n2cc(CCCCN3CCC4(CC3)Oc3ccccc3O4)c3ccccc32)cc1` [1'-{4-[1-(4-fluorophenyl)-1H-3-indolyl]butyl}spiro[benzo[d][1,3]dioxole-2,4'-(hexahydropyridine)]] the value was 270 nM.
`Fc1ccc(-n2cc(CCCCN3CCC4(CC3)COc3ccccc34)c3ccccc32)cc1` [1'-{4-[1-(4-fluorophenyl)-1H-3-indolyl]butyl}spiro[2,3-dihydrobenzo[b]furan-3,4'-(hexahydropyridine)]] had an IC50 of 12 nM.
For `Fc1ccc(-n2cc(CCCCN3CCC4(CC3)OCCc3ccccc34)c3ccccc32)cc1` [1'-{4-[1-(4-fluorophenyl)-1H-3-indolyl]butyl}spiro[3,4-dihydro-1H-isochromene-1,4'-(hexahydropyridine)]] the value was 0.9 nM; for `Fc1ccc(-n2cc(CCCCN3CCC4(CC3)SCc3ccccc34)c3ccccc32)cc1` [1'-{4-[1-(4-fluorophenyl)-1H-3-indolyl]butyl}spiro[1,3-dihydrobenzo[c]thiophene-1,4'-(hexahydropyridine)]], 0.14 nM; for `c1ccc(CCN2CCC3(CC2)OCc2ccccc23)cc1` [1'-(2-phenylethyl)-3H-spiro[2-benzofuran-1,4'-piperidine]], 2.9 nM.
